Measured values: US12559863B2, “Macrocyclic modulators of disease associated protein misfolding and aggregation” (RESQ BIOTECH, priority 2017, dated 2026)
Where a SMILES comes first, the peptide text is derived from it.

Key:
Aβ40 [1] = target: T1, Aβ40 (Homo sapiens, UniProt P05067); experiment: Circular dichroism of Aβ40 with cyclic peptide; assay type: biochemical; conditions: 50 μM Aβ, 33° C., 30 d
T1 construct: The main product of APP cleavage consists of 40 amino acids (Aβ40); purchased Eurogentec, Belgium; host or cells: chemical synthesis
Method: Synthetic Aβ40 and Aβ42 peptides were gently dissolved without vortexing in doubly deionized water to a final concentration of 100 μM. These solutions were then diluted by PBS addition (10 mM, pH 7.33) to achieve a final Aβ concentration of 50 μM.
Appropriate amounts of synthetic cyclic peptides were added to either 40 μM SOD1(A4V) or 50 μM Aβ solutions at the desired cyclic peptide:target protein molar ratio. SOD1(A4V) structural changes were monitored for 90 d at 25° C., under quiescent conditions. Aβ structural changes were monitored for 30 d at 33° C. under quiescent conditions. CD spectra in the range 190-260 nm were recorded on a JASCO J-715 spectropolarimeter (Jasco Co., Japan) using quartz cuvettes with 1 mm path length. Each reported spectrum is the average of three scans at a rate of 100 nm·min^−1 and a resolution of 0.5 nm.

Aβ40 [2] = target: T1, Aβ40; experiment: Thioflavin T dye-binding assay of Aβ40; assay type: biochemical; conditions: 30-d aged CD solutions
Method: For Aβ ThT staining, 100 μL of the 30-d aged 50 μM CD solutions were diluted in PBS (10 mM, pH 7.33) to form a 25 μM Aβ solution with 200 μL final volume. 2.5 μL from a stock solution of ThT (Sigma-Aldrich, USA) in PBS (10 mM, pH 7.33) was added to the prepared Aβ solutions to achieve a final ThT concentration of 5 μM. The mixture was agitated adequately by pipetting and immediately thereafter, fluorescence was monitored with excitation at 440 nm (EM slit=2.5 nm, PMT Voltage 700 V, response 0.4 s) using a HITACHI F-2500 (Japan) spectrofluorometer.

Aβ42 = target: T2, Aβ42 (Homo sapiens, UniProt P05067); experiment: Transmission electron microscopy of Aβ42; assay type: biochemical; conditions: 50 μM Aβ42 with 100 μM peptide, 30-d aged
T2 construct: one of the secondary products yields a 42-amino-acid-long peptide (Aβ42); purchased Eurogentec, Belgium; host or cells: chemical synthesis
Method: For TEM analysis, the 30-d aged 50 μM CD solutions of Aβ42 (with 100 μM of the selected peptides or without) was mixed well by pipetting. 2 μL of this solution were placed in a carbon-coated film on 200-mesh copper grids (Agar Scientific, UK) for 5 min. After adsorption, grids were washed in deionized water and negatively stained by applying a 2-μl drop of freshly prepared 1% (w/v) uranyl acetate (Sigma-Aldrich, USA) in Milli-Q water for 5 min. Excess fluid was blotted off, and grids were washed in deionized water and dried in air. Images were recorded using a FEI CM20 electron microscope (FEI, USA) with a Gatan GIF200 imaging filter (Gatan, USA), equipped with a Peltier-cooled slow-scan CCD camera.

[3] = system: C. elegans strain CL4176 (human Aβ42, heat-inducible); experiment: Paralysis assay in C. elegans CL4176; assay type: in vivo, Caenorhabditis elegans; conditions: synthetic AβC5-34 10 μM, AβC5-116 5 μM; temperature up-shift
Method: (§1) We followed standard procedures for C. elegans strains maintenance at 16° C. The following strains were used: CL2179: dvIs179 [myo-3p::GFP::3′UTR(long)+rol-6(su1006)] (available on the world wide web at: cgc.cbs.umn.edu/strain.php?id=26134); CL2331: dvIs37 [myo-3p::GFP::Aβ(3-42)+rol-6(su1006)] (available on the world wide web at: cgc.cbs.umn.edu/strain.php?id=26135); CL4176: smg-1(cc546) I; dvIs27 [myo-3::Aβ(1-42)-let 3′UTR(pAF29); pRF4 (rol-6(su1006)] (available on the world wide web at: cgc.cbs.umn.edu/strain.php?id=7663).
For treatments with synthetic cyclic peptides, nematodes were exposed to the indicated AβC5-34 and AβC5-116 concentrations per NGM plate. Stock solutions of the two chemically synthesized pure peptides were obtained after dissolution in DMSO and stored at −20° C. The appropriate amount of compound or DMSO (control cultures) was added onto an E. coli OP50 bacterial lawn. […] Treatment and control plates were handled, scored and assayed in parallel.
Synchronized CL4176 animals (150-300 animals per condition) were transferred to NGM plates containing synthetic AβC5-34, AβC5-116 or 0.26% DMSO at 16° C. for 48 h before transgene induction via temperature up-shift to 25° C. […] Treatment and control plates were handled, scored and assayed in parallel. […] Nematodes were scored as paralyzed upon failure to move their half end-body upon prodding. […]

[4] = system: C. elegans strain CL2331 (Aβ3-42-GFP); experiment: Confocal microscopy of Aβ3-42-GFP deposits in C. elegans CL2331; assay type: in vivo, Caenorhabditis elegans; conditions: 10 μM AβC5-34 or 5 μM AβC5-116
Method: as §1
For Aβ3-42 deposit measurements, synchronized (at the L4 larval stage) CL2331 and CL2179 (control strain) animals exposed to solvent (0.26% DMSO), 10 μM AβC5-34 or 5 μM AβC5-116 and grown at 20° C. (to induce aggregation) until day 2 of adulthood were collected. Animals were mounted onto 2% agarose pads on glass slides, anesthetized with 10 mM levamisole and observed at RT using a Leica TCS SPE confocal laser scanning microscope (Leica Lasertechnik GmbH, Germany). The LAS AF software was used for image acquisition. At least twenty animals/condition in three independent experiments were processed. Images of whole worms and focused images in the posterior area of nematodes were acquired with 10×0.45 and 20×0.70 numerical aperture, respectively.

Compound | effect on aggregation process of Aβ40 (CD) (Aβ40 [1]) | Aβ40 fibril formation (ThT) (Aβ40 [2]) | Aβ42 fibrils by TEM (Aβ42) | appearance of paralysis phenotype, CL4176 [3] | Aβ deposits, CL2331 [4]
cyclo-TWSVW (cyclic) [SOD1C5-4] | did not have any effect | did not have any effect |  |  | 
C[C@@H]1NC(=O)[C@H](CO)NC(=O)[C@H]([C@@H](C)O)NC(=O)[C@@H]2CCCN2C(=O)[C@H](CO)NC1=O [AβC5-34, cyclo-SASPT] (cyclo(ASPTS)) | did not have the same effect and resulted in the appearance of a low-intensity negative peak | almost unaffected | notably fewer, shorter and ill-developed | significant delay | significant reduction of Aβ deposits
C[C@@H]1NC(=O)[C@H]([C@@H](C)O)NC(=O)[C@H](CCCNC(=N)N)NC(=O)[C@H](CC(=O)O)NC(=O)[C@H](Cc2ccccc2)NC1=O [AβC5-116, cyclo-TAFDR] (cyclo(AFDRT)) | strongly inhibit the aggregation of Aβ40 | reduced | notably fewer, shorter and ill-developed | significant delay | significant reduction of Aβ deposits
